Values after ≈ are worked out from the molar mass of the structure shown. Like-named read-outs stand apart in the source and are kept apart here.
Columns and labels:
[1] = test system: Escherichia coli (ECOL); assay: Minimum inhibitory concentration (MIC), broth two-fold serial dilution test; conditions: Escherichia coli, IIIB, read-out: MIC (G-) ECOL, trypticase soy broth (complex media); Table IIIb
[2] = test system: THREE FUNGI; assay: MIC test against three fungi in Mycophile Broth, pH 5.0, read after 8 days (Table VII); format: cell-based; conditions: 192 h, serial dilutions from 50 ppm, read after 8 days of incubation
[3] = test system: 8 FUNGI; assay: Microbicides secondary test against 8 fungi on Mycophile Agar at pH 5.0 (Table VI); format: cell-based; parameters: key: 1= no growth; 0= growth of the indicated fungi at dose indicated in ppm; conditions: for ANIG growth: Aspergillus niger; for APUL growth: Aureobasidium pullulans; for CGLO growth: Chaetomium globosum; for CRES growth: Cladosporium resinae; for GTRA growth: Gloeophyllum trabeum; for PFUN growth: Penicillium funiculosum; for RRUB growth: Rhodotorula rubra; for SSER growth: Sacharomyces cerevisiae
Excerpt: The results of the minimum inhibitory concentration (MIC) tests of compounds of this invention are shown in Tables IIIa IIIb, IIIc, V, VI, VII, and VIII against the microorganisms shown in Table IX.

[4] = test system: Staphylococcus aureus (SAUR); assay: Minimum inhibitory concentration (MIC), broth two-fold serial dilution test; conditions: Staphylococcus aureus, IIIB, read-out: MIC (G+) SAUR, trypticase soy broth (complex media); Table IIIb
[5] = test system: Septoria nodorum (SEP); assay: In-vitro plant fungicide test; format: cell-based; conditions: Parastagonospora nodorum, 25 ppm; Table IVa; read-out: % Control at 25 ppm SEP
[6] = test system: Botrytis cinerea (BOC); assay: In-vitro plant fungicide test; format: cell-based; conditions: Botrytis cinerea, 25 ppm; Table IVa; *=Phytotoxic; read-out: % Control at 25 ppm BOC
[7] = test system: Pythium ultimum (PYU); assay: In-vitro plant fungicide test; format: cell-based; conditions: Globisporangium ultimum; 25 ppm; Table IVa; read-out: % Control at 25 ppm PYU
[8] = test system: Piricularia oryzae (PIR); assay: microbe, parasite or virus in culture; format: cell-based; conditions: read-out: % Control at 25 ppm PIR
[9] = test system: MIXED COOLING TOWER ALGAE; assay: MIC test against mixed cooling tower algae; format: cell-based, green algae and blue-green bacteria; conditions: Table VIII
Procedure: The algae culture contains green algae and blue-green bacteria, and is obtained from a cooling tower in Spring House, Pennsylvania. The algae culture is grown in Allen's medium on a rotary shaker under flourescent room lighting. This culture is further diluted with Allen's medium and then added to the test vessel.

[10] = test system: Aspergillus niger (ANIG); assay: Minimum inhibitory concentration (MIC), broth two-fold serial dilution test; format: cell-based; conditions: Aspergillus niger, IIIB, trypticase soy broth (complex media); Table IIIb; read-out: MIC (F) ANIG
[11] = test system: Xanthomonas campestris (XAN); assay: In-vitro plant fungicide test; format: cell-based; conditions: Xanthomonas campestris; 25 ppm; Table IVa; read-out: % Control at 25 ppm XAN

SMILES: O=C(CNC(=O)c1ccccc1)OCC#CI [Compound 29, N-benzoylglycine iodopropargyl ester]
- MIC [1]: 125 µg/mL (≈ 364 µM)
- MIC ([2]; Aspergillus niger, read-out: MIC ANIG): 1.6 µg/mL (≈ 4.66 µM)
- MIC ([2]; Aureobasidium pullulans, read-out: MIC APUL): 12.5 µg/mL (≈ 36.4 µM)
- MIC ([2]; Gloeophyllum trabeum, read-out: MIC GTRA): 3.2 µg/mL (≈ 9.33 µM)
- ANIG growth ([3]; 0.2 PPM): 0
- ANIG growth ([3]; 1.0 PPM): 1
- ANIG growth ([3]; 2.5 PPM): 1
- ANIG growth ([3]; 25 PPM): 1
- APUL growth ([3]; 0.2 PPM): 0
- APUL growth ([3]; 1.0 PPM): 0
- APUL growth ([3]; 2.5 PPM): 0
- APUL growth ([3]; 25 PPM): 1
- CGLO growth ([3]; 0.2 PPM): 0
- CGLO growth ([3]; 1.0 PPM): 0
- CGLO growth ([3]; 2.5 PPM): 0
- CGLO growth ([3]; 25 PPM): 1
- CRES growth ([3]; 0.2 PPM): 0
- CRES growth ([3]; 1.0 PPM): 0
- CRES growth ([3]; 2.5 PPM): 0
- CRES growth ([3]; 25 PPM): 1
- GTRA growth ([3]; 0.2 PPM): 0
- GTRA growth ([3]; 1.0 PPM): 1
- GTRA growth ([3]; 2.5 PPM): 1
- GTRA growth ([3]; 25 PPM): 1
- PFUN growth ([3]; 0.2 PPM): 0
- PFUN growth ([3]; 1.0 PPM): 0
- PFUN growth ([3]; 2.5 PPM): 1
- PFUN growth ([3]; 25 PPM): 1
- RRUB growth ([3]; 0.2 PPM): 0
- RRUB growth ([3]; 1.0 PPM): 0
- RRUB growth ([3]; 2.5 PPM): 0
- RRUB growth ([3]; 25 PPM): 1
- SSER growth ([3]; 0.2 PPM): 0
- SSER growth ([3]; 1.0 PPM): 0
- SSER growth ([3]; 2.5 PPM): 0
- SSER growth ([3]; 25 PPM): 1
- MIC [4]: 32 µg/mL (≈ 93.3 µM)
- inhibition of growth at 25 ppm [5]: 100%
- inhibition of growth at 25 ppm [6]: 100%
- inhibition of growth at 25 ppm [7]: 100%
- inhibition of growth at 25 ppm [8]: 100%
- MIC [9]: 6.2 µg/mL (≈ 18.1 µM)
- MIC [10]: 0.5 µg/mL (≈ 1.46 µM)
- inhibition of growth at 25 ppm [11]: 0%

Reference: patent EP0414533A1, “Use of iodopropargyl esters of alpha-amino acid derivatives as antimicrobial agents” (ROHM AND HAAS COMPANY, priority 1989, dated 1991)
